This assay has as its target Mitogen-activated protein kinase kinase kinase kinase 1 (Homo sapiens, UniProt Q92918). Nature of the assay: ADP-Glo kinase assay: HPK1 kinase activity was measured by Promega's ADP-Glo™ kinase assay. In this assay, 5 ng of recombinant human HPK1 (signalchem) is incubated with 5 μL of compounds (0.5% DMSO), 5 μL of MBP (0.5 μg/μl) and 5 μL of ATP (25 μM) in buffer (40 mM Tris, 7.5; 20 mM MgCl2; 0.1 mg/ml BSA; 5 μM DTT). The assay was started by incubating the reaction mixture in a 96-well plate at 30′ C for 40 minutes. After the incubation, 25 uL ADP-Glo reagent was added and the reaction was incubated at room temperature for 40-min to stop the reaction and degrade residual ATP. The ADP product was then converted to ATP by adding 50 uL per well of detection reagent. Luminescence was detected after 30-min room temperature incubation with the Molecular device I3X plate reader. The IC50 values were calculated from a series of percent inhibition values determined at a range of inhibitor concentration using software routines as implemented in the GraphPad Prism 7 software and SigmaPlot13.0.

Some results are limits rather than exact numbers.

One may read the IC50 as the point on the concentration scale where inhibition reaches its midpoint.

Mitogen-activated protein kinase kinase kinase kinase 1, sequence (Q92918 whole entry): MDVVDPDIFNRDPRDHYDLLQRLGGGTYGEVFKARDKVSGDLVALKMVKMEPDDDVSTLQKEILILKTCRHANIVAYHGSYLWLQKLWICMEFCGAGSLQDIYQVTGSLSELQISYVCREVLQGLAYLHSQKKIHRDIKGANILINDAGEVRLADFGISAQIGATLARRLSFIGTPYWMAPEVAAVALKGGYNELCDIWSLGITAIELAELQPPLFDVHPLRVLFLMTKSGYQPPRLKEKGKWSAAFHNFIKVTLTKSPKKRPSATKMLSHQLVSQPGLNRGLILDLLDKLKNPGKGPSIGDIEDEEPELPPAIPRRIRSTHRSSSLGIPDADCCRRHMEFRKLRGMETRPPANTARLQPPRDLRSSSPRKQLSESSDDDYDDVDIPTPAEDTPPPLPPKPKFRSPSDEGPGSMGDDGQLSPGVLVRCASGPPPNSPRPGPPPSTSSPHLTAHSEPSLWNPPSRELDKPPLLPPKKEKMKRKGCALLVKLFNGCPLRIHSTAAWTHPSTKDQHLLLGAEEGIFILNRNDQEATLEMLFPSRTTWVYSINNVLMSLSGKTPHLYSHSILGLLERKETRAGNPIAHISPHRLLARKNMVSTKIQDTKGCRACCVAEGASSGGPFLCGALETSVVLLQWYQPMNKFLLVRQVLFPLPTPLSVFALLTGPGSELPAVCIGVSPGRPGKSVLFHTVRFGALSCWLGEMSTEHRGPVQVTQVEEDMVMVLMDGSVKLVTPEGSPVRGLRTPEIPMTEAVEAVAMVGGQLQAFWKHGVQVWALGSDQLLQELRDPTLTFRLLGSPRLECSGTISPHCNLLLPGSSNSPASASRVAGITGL

For the molecule `CSc1c(F)c(C)c(-c2ccn3nc(NC(=O)C4CC4)cc3c2)c2cn[nH]c12`, the IC50 was less than 0.1 µM.

Take `CC(O)c1c(F)c(Cl)c(-c2ccc3nc(NC(=O)[C@@H]4C[C@@H]4F)cn3c2)c2cn[nH]c12` (some centres undefined): the IC50 was less than 0.1 µM.

As for `CSc1c(F)c(C)c(-c2ccn3nc(NC(=O)[C@H]4C[C@H]4F)cc3c2)c2cn[nH]c12`, the IC50 was less than 0.1 µM.

Turning to `CSc1c(F)c(C)c(-c2ccn3nc(NC(=O)[C@@H]4C[C@H]4F)cc3c2)c2cn[nH]c12`, the IC50 is less than 0.1 µM.

Take `CCc1c(F)c(SC(C)C#N)c2[nH]ncc2c1-c1ccn2nc(NC(=O)[C@@H]3C[C@@H]3F)cc2c1` (some centres undefined): the IC50 is less than 0.1 µM.

Regarding `COC(c1c(F)c(Cl)c(-c2ccc3nc(NC(=O)[C@@H]4C[C@@H]4F)cn3c2)c2cn[nH]c12)C(F)(F)F` (some centres undefined), the IC50 was less than 0.1 µM.

Take `CC(=O)N(C)c1c(F)c(C)c(-c2ccc3nc(NC(=O)[C@@H]4C[C@@H]4F)cn3c2)c2cn[nH]c12`: the IC50 is less than 0.1 µM.

As to `CCN(C)c1c(F)c(C)c(-c2ccc3nc(NC(=O)[C@@H]4C[C@@H]4F)sc3c2)c2cn[nH]c12`, the IC50 is less than 0.1 µM.

For the molecule `O=C(Nc1cn2cc(-c3c(Cl)c(F)c(C(O)C(F)(F)F)c4[nH]ncc34)ccc2n1)[C@@H]1C[C@@H]1F` (some centres undefined), the IC50 is less than 0.1 µM.

As to `CCN(C)c1c(F)c(C)c(-c2ccc3nc(NC(=O)[C@@H]4C[C@@H]4F)sc3n2)c2cn[nH]c12`, the IC50 was less than 0.1 µM.

For `CC(=O)N(C)c1c(F)c(C)c(-c2ccn3nc(NC(=O)[C@@H]4C[C@@H]4F)cc3c2)c2cn[nH]c12`, the IC50 was less than 0.1 µM.

As to `Cn1ccc(-c2c(F)c(Cl)c(-c3ccc4nc(NC(=O)[C@@H]5C[C@@H]5F)cn4c3)c3cn[nH]c23)c1`, the IC50 was less than 0.1 µM.

Take `CC(=O)N(C)c1c(F)c(C)c(-c2ccc3nc(NC(=O)[C@@H]4C[C@@H]4F)sc3n2)c2cn[nH]c12`: the IC50 was less than 0.1 µM.

As to `CC(F)c1c(F)c(Cl)c(-c2ccc3nc(NC(=O)[C@@H]4C[C@@H]4F)cn3c2)c2cn[nH]c12` (some centres undefined), the IC50 is less than 0.1 µM.

As to `CSC(C)c1c(F)c(Cl)c(-c2ccc3nc(NC(=O)[C@@H]4C[C@@H]4F)cn3c2)c2cn[nH]c12` (some centres undefined), the IC50 is less than 0.1 µM.

Consider `O=C(Nc1cc2cc(-c3c(Cl)c(F)c(C(O)C(F)(F)F)c4[nH]ncc34)ccn2n1)[C@@H]1C[C@@H]1F` (some centres undefined), for which the IC50 is less than 0.1 µM.

For `O=C(Nc1cc2cc(-c3c(Cl)c(F)c(CO)c4[nH]ncc34)ccn2n1)[C@@H]1C[C@@H]1F`, the IC50 is less than 0.1 µM.

Take `O=C(Nc1cn2cc(-c3c(Cl)c(F)c(NC4CCOC4)c4[nH]ncc34)ccc2n1)[C@@H]1C[C@@H]1F` (some centres undefined): the IC50 is less than 0.1 µM.

In the case of `CCN(C)c1c(F)c(Cl)c(-c2ccc3nc(NC(=O)[C@@H]4C[C@@H]4F)sc3n2)c2cn[nH]c12`, the IC50 is less than 0.1 µM.

For `O=C(Nc1cn2cc(-c3c(Cl)c(F)c(CN4CCCC4)c4[nH]ncc34)ccc2n1)[C@@H]1C[C@@H]1F`, the IC50 is less than 0.1 µM.

Regarding `N#CC(NC=O)c1c(F)c(Cl)c(-c2ccc3nc(NC(=O)[C@@H]4C[C@@H]4F)cn3c2)c2cn[nH]c12` (some centres undefined), the IC50 is less than 0.1 µM.

For the molecule `Cn1ccnc1Sc1c(F)c(Cl)c(-c2ccc3nc(NC(=O)[C@@H]4C[C@@H]4F)cn3c2)c2cn[nH]c12`, the IC50 was less than 0.1 µM.

Consider `O=C(Nc1cn2cc(-c3c(Br)c(F)cc4[nH]ncc34)ccc2n1)[C@@H]1C[C@@H]1F`, for which the IC50 is less than 0.1 µM.

`CSc1c(F)c(C)c(-c2ccn3nc(NC(=O)[C@H]4C[C@@H]4F)cc3c2)c2cn[nH]c12`: the half-inhibitory concentration (IC50) is less than 0.1 µM.

For the molecule `Cc1c(F)c([S+](C)[O-])c2[nH]ncc2c1-c1ccn2nc(NC(=O)[C@@H]3C[C@@H]3F)cc2c1` (some centres undefined), the IC50 was less than 0.1 µM.

For `Cc1c(F)c(S(C)(=O)=O)c2[nH]ncc2c1-c1ccc2nc(NC(=O)[C@@H]3C[C@@H]3F)sc2n1`, the IC50 is more than 1 µM.

`N#Cc1c(F)c(Cl)c(-c2ccc3nc(NC(=O)[C@@H]4C[C@@H]4F)sc3c2)c2cn[nH]c12`: the IC50 is less than 0.1 µM.

For the molecule `CNC(=O)CSc1c(F)c(Cl)c(-c2ccc3nc(NC(=O)[C@@H]4C[C@@H]4F)sc3c2)c2cn[nH]c12`, the IC50 was less than 0.1 µM.

Turning to `CS(=O)(=O)Cc1c(F)c(Cl)c(-c2ccc3nc(NC(=O)[C@@H]4C[C@@H]4F)cn3c2)c2cn[nH]c12`, the IC50 was less than 0.1 µM.

For the molecule `CCN(C)c1c(F)c(C)c(-c2ccc3nc(NC(=O)[C@@H]4C[C@@H]4F)cn3c2)c2cn[nH]c12`, the IC50 was less than 0.1 µM.

In the case of `Cn1cccc1-c1c(F)c(Cl)c(-c2ccc3nc(NC(=O)[C@@H]4C[C@@H]4F)cn3c2)c2cn[nH]c12`, the IC50 is less than 0.1 µM.

Take `CCOC(c1c(F)c(Cl)c(-c2ccc3nc(NC(=O)[C@@H]4C[C@@H]4F)cn3c2)c2cn[nH]c12)C(F)(F)F` (some centres undefined): the IC50 is less than 0.1 µM.

Take `O=C(Nc1cn2cc(-c3c(Cl)c(F)c(-c4cc[nH]c4)c4[nH]ncc34)ccc2n1)[C@@H]1C[C@@H]1F`: the IC50 was less than 0.1 µM.

With `O=C(Nc1cn2cc(-c3c(Cl)c(F)c(CO)c4[nH]ncc34)ccc2n1)[C@@H]1C[C@@H]1F`, the IC50 was less than 0.1 µM.

Take `CSCc1c(F)c(Cl)c(-c2ccc3nc(NC(=O)[C@@H]4C[C@@H]4F)cn3c2)c2cn[nH]c12`: the IC50 is less than 0.1 µM.

Take `C[S+]([O-])Cc1c(F)c(Cl)c(-c2ccc3nc(NC(=O)[C@@H]4C[C@@H]4F)cn3c2)c2cn[nH]c12` (some centres undefined): the IC50 was less than 0.1 µM.

With `CC(Nc1c(F)c(Cl)c(-c2ccc3nc(NC(=O)[C@@H]4C[C@@H]4F)cn3c2)c2cn[nH]c12)C(=O)N(C)C` (some centres undefined), the IC50 is less than 0.1 µM.

`CC(=O)Nc1c(F)c(C)c(-c2ccn3nc(NC(=O)[C@@H]4C[C@@H]4F)cc3c2)c2cn[nH]c12`: the IC50 was less than 0.1 µM.

On to `Cn1nccc1-c1c(F)c(Cl)c(-c2ccc3nc(NC(=O)[C@@H]4C[C@@H]4F)cn3c2)c2cn[nH]c12`, for which the IC50 was less than 0.1 µM.

Take `O=C(Nc1nc2ccc(-c3c(Cl)c(F)c(N4CCCC4)c4[nH]ncc34)cc2s1)[C@@H]1C[C@@H]1F`: the IC50 was less than 0.1 µM.

For the molecule `O=C(Nc1cn2cc(-c3c(Cl)c(F)c(C(F)C(F)(F)F)c4[nH]ncc34)ccc2n1)[C@@H]1C[C@@H]1F` (some centres undefined), the IC50 is less than 0.1 µM.

For `O=C(Nc1cc2cc(-c3c(C(F)(F)F)c(F)cc4[nH]ncc34)ccn2n1)[C@@H]1C[C@@H]1F`, the IC50 was less than 0.1 µM.

As to `CSc1c(F)c(SC)c2[nH]ncc2c1-c1ccc2nc(NC(=O)[C@@H]3C[C@@H]3F)sc2c1`, the IC50 was less than 0.1 µM.

Take `O=C(Nc1cn2cc(-c3c(Cl)c(F)c(NC4=NCCN4)c4[nH]ncc34)ccc2n1)[C@@H]1C[C@@H]1F`: the IC50 was less than 0.1 µM.

For the molecule `CSc1c(F)c(C)c(-c2ccc3nc(NC(=O)[C@@H]4C[C@@H]4F)sc3n2)c2cn[nH]c12`, the IC50 is less than 0.1 µM.

On to `COC(C)c1c(F)c(Cl)c(-c2ccc3nc(NC(=O)[C@@H]4C[C@@H]4F)cn3c2)c2cn[nH]c12` (some centres undefined), for which the IC50 was less than 0.1 µM.

Take `C=Cc1c(F)cc2[nH]ncc2c1-c1ccc2nc(NC(=O)[C@@H]3C[C@@H]3F)sc2c1`: the IC50 is less than 0.1 µM.

As to `CC(c1c(F)c(Cl)c(-c2ccc3nc(NC(=O)[C@@H]4C[C@@H]4F)cn3c2)c2cn[nH]c12)n1ncnn1` (some centres undefined), the IC50 was less than 0.1 µM.

For `N#CCSc1c(F)c(Cl)c(-c2ccn3nc(NC(=O)[C@@H]4C[C@@H]4F)cc3c2)c2cn[nH]c12`, the IC50 is less than 0.1 µM.

(Values after ChEMBL document CHEMBL5729714, “Indazoles as hematopoietic progenitor kinase 1 (HPK1) inhibitors and methods using same” (2023).)
